Measured values published in ChEMBL document CHEMBL1649478, “Comparison of tigecycline and vancomycin for treatment of experimental foreign-body infection due to methicillin-resistant Staphylococcus aureus” (Antimicrob Agents Chemother, 2009).
In brackets after ≈: the same amount, converted by molar mass.

Legend:
Staphylococcus aureus [1] = experiment: Antibacterial activity against methicillin-resistant Staphylococcus aureus MRG3 by broth microdilution method; type: functional
Staphylococcus aureus [2] = experiment: Antibacterial activity against methicillin-resistant Staphylococcus aureus MRG3 assessed as log decrease in bacterial count at 1 to 4 ug/ml by broth microdilution method; type: functional
Plasma = experiment: Drug level in plasma of Wistar rat infected with methicillin-resistant Staphylococcus aureus MRG3 at 7 mg/kg, sc BID measured on day 4 postdose; type: ADME, organism-based; set-up: dose 7 mg/kg, route subcutaneous; details: in vivo
[3] = Drug level in body fluid of Wistar rat infected with methicillin-resistant Staphylococcus aureus MRG3 at 7 mg/kg, sc BID measured on day 7 postdose; type: ADME, organism-based; set-up: dose 7 mg/kg, route subcutaneous; details: in vivo
Staphylococcus aureus [4] = experiment: Antibacterial activity against methicillin-resistant Staphylococcus aureus MRG3 infected in Wistar rat assessed as bacterial load in body fluid at 7 mg/kg, sc BID after 1 day; type: functional; details: route subcutaneous
[5] = Drug level in body fluid of Wistar rat infected with methicillin-resistant Staphylococcus aureus MRG3 at 7 mg/kg, sc BID measured on day 4 postdose; type: ADME, organism-based; set-up: dose 7 mg/kg, route subcutaneous; details: in vivo
Staphylococcus aureus [6] = experiment: Antibacterial activity against methicillin-resistant Staphylococcus aureus MRG3 infected in Wistar rat assessed as decrease in bacterial load in body fluid at 7 mg/kg, sc BID after 8 days; type: functional; details: route subcutaneous
Staphylococcus aureus [7] = experiment: Antibacterial activity against methicillin-resistant Staphylococcus aureus MRG3 infected in Wistar rat assessed as decrease in bacterial load in body fluid at 50 mg/kg, sc after 8 days; type: functional; details: route subcutaneous
Staphylococcus aureus [8] = experiment: Antibacterial activity against methicillin-resistant Staphylococcus aureus MRG3 infected in Wistar rat assessed as bacterial load in body fluid at 50 mg/kg, sc after 1 day; type: functional; details: route subcutaneous
[9] = Cmin in body fluid of Wistar rat infected with methicillin-resistant Staphylococcus aureus MRG3 at 50 mg/kg, sc measured on day 4 postdose; type: ADME, organism-based; set-up: dose 50 mg/kg, route subcutaneous; details: in vivo
[10] = Cmax in body fluid of Wistar rat infected with methicillin-resistant Staphylococcus aureus MRG3 at 50 mg/kg, sc measured on day 4 postdose; type: ADME, organism-based; set-up: dose 50 mg/kg, route subcutaneous
Staphylococcus aureus [11] = experiment: Bactericidal activity against methicillin-resistant Staphylococcus aureus MRG3 by broth microdilution method

SMILES	MIC (Staphylococcus aureus [1])	log10CFU/ml (Staphylococcus aureus [2])	Drug uptake (Plasma)	Drug uptake [3]	log10CFU/ml (Staphylococcus aureus [4])	Drug uptake [5]	log10CFU/ml (Staphylococcus aureus [6])	log10CFU/ml (Staphylococcus aureus [7])	log10CFU/ml (Staphylococcus aureus [8])	Cmin [9]	Cmax [10]	MBC (Staphylococcus aureus [11])
CN(C)c1cc(NC(=O)CNC(C)(C)C)c(O)c2c1C[C@H]1C[C@H]3[C@H](N(C)C)C(O)=C(C(N)=O)C(=O)[C@@]3(O)C(O)=C1C2=O [TIGECYCLINE]	0.5 µg/mL (≈ 0.854 µM)	2	1.87 µg/mL	0.33 µg/mL	6.92	0.39 µg/mL	0.62					
CN[C@H](CC(C)C)C(=O)N[C@H]1C(=O)N[C@@H](CC(N)=O)C(=O)N[C@H]2C(=O)N[C@H]3C(=O)N[C@H](C(=O)N[C@H](C(=O)O)c4cc(O)cc(O)c4-c4cc3ccc4O)[C@H](O)c3ccc(c(Cl)c3)Oc3cc2cc(c3O[C@@H]2O[C@H](CO)[C@@H](O)[C@H](O)[C@H]2O[C@H]2C[C@](C)(N)[C@H](O)[C@H](C)O2)Oc2ccc(cc2Cl)[C@H]1O [VANCOMYCIN]								0.76	6.7	2000 ng/mL	12000 ng/mL	2 µg/mL (≈ 1.38 µM)
